From US6774128B2, “Methods for prevention and treatment of gastrointestinal disorders” (Johns Hopkins University, priority 2000, dated 2004)
“Also recorded” adds a separate entry of the source. Read-outs that look alike come from different tables or passages of the source.

What was measured:
[1] = tested on: STZ-diabetic and NOD-diabetic mice; assay: Gastric emptying of phenol red-labeled liquid meal in diabetic mice; assay type: in vivo, mouse; details: for t½ for gastric emptying: 1 mg/kg intraperitoneal 20 minutes before; for gastric emptying (20% dextrose): NOD-diabetic and STZ-diabetic mice after 1 week of insulin treatment
Description: Animals. Mice were allowed free access to food and water except when fasted, as indicated for experiments. Wild-type mice (C57BL/6) were purchased from The Jackson Laboratory (Bar Harbor, Me., USA). nNOS^−/− mice were obtained following targeted genomic deletion of nNOS (15) and have the genetic background of C57BL/6 mice (28). For STZ-induced diabetes, adult male mice (C57BL/6) were injected intraperitoneally with a single dose of STZ (200 mg/kg in 0.1 M sodium citrate) as described elsewhere (29), whereas control mice were injected with an equal volume of vehicle (sodium citrate). STZ-treated mice were used for experiments 8 weeks after STZ injection. […]; Boehringer Mannheim, Indianapolis, Ind., USA). The average serum glucose levels for wild-type animals and the STZ diabetic mice 8 weeks after injection were 99 mg/dL and 388 mg/dL, respectively (Table 1). Adult male nonobese diabetic (NOD/LtJ [NOD]) mice were obtained at 8-10 weeks of age (The Jackson Laboratory). Serum glucose levels were also monitored weekly with the Accu-Check monitor. NOD-prediabetic mice and NOD-diabetic mice had average serum glucose levels of 88 mg/dL and 232 mg/dL, respectively (Table 1). For the indicated experiments, NOD-prediabetic mice were sacrificed at 10 weeks of age after serum glucose levels were confirmed, whereas NOD-diabetic mice were sacrificed at 30-32 weeks of age after elevated serum glucose levels were confirmed.
(§1) Insulin treatment was given using LinBit, a sustained-release insulin implant (0.1 U/d/implant; LinShin Canada Inc., Toronto, Ontario, Canada). After brief anesthesia with diethyl echer, the insulin implant was quickly immersed in Betadine solution (McKesson, San Francisco, Calif., USA) and implanted subcutaneously with a 12-gauge needle. Serum glucose levels were monitored, and insulin-treated animals were used for experiments after 12 hours or 1 week of insulin therapy, as indicated. The serum glucose levels after 1 week of insulin treatment are shown (Table 1), as are the serum glucose levels after 12 hours of insulin treatment (see FIG. 2b).
As indicated, insulin-treated diabetic mice were treated with the nNOS inhibitor 7-nitroindazole (7-NI; Lancaster, Wyndham, N.H., USA) by two intraperitoneal injections (50 mg/kg) of a suspension in sesame oil (Sigma Chemical Co., St. Louis, Miss., USA) given 24 hours and 30 minutes before determination of gastric emptying. […] For all experiments, control animals were similarly injected with vehicle (either sesame oil or water).
Gastric emptying. Gastric emptying of liquids was determined as described previously (30). For any experiments using diabetic mice, serum glucose levels of all animals were confirmed immediately before monitoring gastric emptying. Adult mice were sedated briefly (<30 seconds) with diethyl ether. Mice fully recovered from sedation in less than 1 minute. During brief sedation, oral-gastric intubation was accomplished with a 21-gauge needle fitted with a thin plastic catheter (8 cm in length). Then, 0.2 mL of 1 mg/mL phenol red-labeled 20% dextrose (or other solution, if indicated) was instilled into the stomach. Mice were placed in clean, empty cages until the time of sacrifice. At the indicated time (0-120 minutes), mice were rapidly sacrificed by cervical dislocation and the stomach was excised. The duodenum was ligated, followed by transverse resection of the lower esophagus, and the stomach was removed from the body cavity. Excised stomachs were homogenized with a polytron (Brinkmann, Westbury, N.Y., USA) homogenizer in 3 mL of 95% ethyl alcohol. After centrifugation (40,000 g for 20 minutes), an aliquot of the supernatant was used to determine phenol red content. Standard curve was constructed and found to be linear over the range of 1-20 microgram of phenol red. Phenol red content was monitored at 410 nm, at which a single peak of absorbance was observed when extracted with ethanol. […]

pyloric sphincter muscle = assay: Organ bath physiology: EFS-evoked NO-dependent NANC relaxation of ex vivo pylori; set-up: species or system mouse
nNOS [2] = assay: Immunohistochemistry of nNOS protein expression in pyloric myenteric neurons; assay type: in vivo, mouse; details: NOD-diabetic and STZ-diabetic mice, insulin treatment (1 week)
Description: as §1
Immunohistochemistry. For nondiabetic studies, wild-type animals or 10-week-old NOD-prediabetic animals were used. For diabetic studies, we used animals 8 weeks after STZ injection (STZ diabetic) or 30-week-old NOD mice (NOD-diabetic). Pylori or other tissues were dissected and immediately imbedded (Tissue-Tek OCT 4583; Sakura Finetek Inc., Torrence, Calif., USA) and placed in dry ice and allowed to freeze. Routine sections (10 micrometer) were cut using a cryostat (−19° C.; Leica Microm, Allendale, N.J., USA). For immunostaining, slides were fixed for 5 minutes in 4.0% paraformaldehyde, washed in PBS, and permeablized with 0.1% Triton X-100 in PBS. […]

nNOS mRNA = assay: In situ hybridization of nNOS mRNA in pyloric myenteric neurons; assay type: in vivo, mouse; details: NOD-diabetic and STZ-diabetic mice, insulin treatment (1 week)
Description: as §1
In situ hybridization. In situ hybridization for nNOS was performed as described previously (31,32).

nNOS [3] = assay: Western blot analysis of nNOS protein expression in intestinal tissues; assay type: in vivo, mouse; details: NOD-diabetic mice, insulin treatment (1 week)
Description: as §1
Western blot analysis. Mouse tissues were homogenized in ice-cold buffer containing 50 mM Tris (pH 7.4, 25° C.), 100 mM NaCl, 1 mM EGTA, and protease inhibitors (4 microgram/mL leupeptin, 2 microgram/mL antipain, 2 microgram/mL pepstatin, and 1 mM PMSF). After centrifugatin (1.5 minutes, 16,000 g), the supernatants were collected and protein content was determined (Coomassie protein assay; Pierce Chemical Co., Rockville, Ill., USA). Samples (50 microgram protein) were subjected to SDS-PAGE (4-12% gradient gel; Bis-tris NuPage; Novex, San Diego, Calif., USA) and then transferred to PVDF membranes (Immobilon-P; Millipore Corp., Bedford, Mass., USA). […]

[4] = wild-type pylori precontracted with 0.1 micromolar SP, inhibitor 0.1 mM

## O=[N+]([O-])c1cccc2cn[nH]c12 [Compound 7-NI, 7-nitroindazole]
[1]; insulin-treated (1 week) STZ-diabetic and NOD-diabetic mice, 7-NI 50 mg/kg intraperitoneal, 24 hours and 30 minutes before
  gastric emptying at 30 minutes: reverses the restoration of normal gastric emptying; also recorded: delays gastric emptying
Pyloric sphincter muscle; pylori of insulin-treated diabetic mice, in the presence of 0.1 mM 7-NI
  NANC relaxation: completely blocked
Pyloric sphincter muscle; [4]
  EFS-evoked NANC relaxation: blocked

## NC(=NCCC[C@H](N)C(=O)O)N[N+](=O)[O-] [L-NNA, N-nitro-[.-arginine]
Pyloric sphincter muscle; [4]
  EFS-evoked NANC relaxation: blocked

## CCCc1nn(C)c2c(=O)[nH]c(-c3cc(S(=O)(=O)N4CCN(C)CC4)ccc3OCC)nc12 [sildenafil, 5-[2-ethoxy-5-(4-methylpiperazin-1-ylsulphonyl)phenyl]-1-methyl-3-n-propyl-1,6-dihydro-7H-pyrazolo[4,3d]pyrimidin-7-one]
[1]; STZ-diabetic and NOD-diabetic mice, sildenafil 1 mg/kg
  effect on delayed gastric emptying: reverses the delayed gastric emptying; also recorded: reveres delayed gastric emptying
[1]; sildenafil-treated NOD-diabetic mice
  t½ for gastric emptying: 36 min
[1]; sildenafil-treated STZ-diabetic mice
  t½ for gastric emptying: 30 min

## insulin
[1]
  gastric emptying (20% dextrose): restored to normal
[1]; listed as Insulin
  gastric emptying (20% dextrose): reverses delayed gastric emptying
[1]; STZ-diabetic mice after insulin treatment for 12 hours (subcutaneous implant), sham STZ-diabetic 60, wild-type 36
  t½ of gastric emptying: 54 min
Pyloric sphincter muscle; pylori of NOD-diabetic mice after insulin treatment (1 week)
  EFS-evoked NANC relaxation: partially restores NANC relaxation
Pyloric sphincter muscle; pylori of STZ-diabetic mice after insulin treatment (1 week)
  EFS-evoked NANC relaxation: restores NANC relaxation
nNOS [2]
  nNOS protein expression in pyloric myenteric neurons: reverse the loss of nNOS expression; also recorded: near normal levels
nNOS mRNA
  nNOS mRNA expression in pylori: substantially restores
nNOS [3]
  nNOS protein expression (Western blot) in intestinal regions: fully reversible
nNOS [3]; listed as Insulin
  nNOS protein expression (Western blot) in intestinal regions: completely reverses the loss of nNOS protein

## retrodotoxin [TTX]
Pyloric sphincter muscle
  EFS-evoked NANC relaxation: completely blocked
